The values below come from ChEMBL document CHEMBL1909046, “DrugMatrix in vitro pharmacology data”.

The target in series [1] is T1, C-C chemokine receptor type 4 (Homo sapiens, UniProt P51679). Note: in other assays of this panel Not Active means under 50% inhibition at 10 µM.
T1 sequence (P51679 whole entry): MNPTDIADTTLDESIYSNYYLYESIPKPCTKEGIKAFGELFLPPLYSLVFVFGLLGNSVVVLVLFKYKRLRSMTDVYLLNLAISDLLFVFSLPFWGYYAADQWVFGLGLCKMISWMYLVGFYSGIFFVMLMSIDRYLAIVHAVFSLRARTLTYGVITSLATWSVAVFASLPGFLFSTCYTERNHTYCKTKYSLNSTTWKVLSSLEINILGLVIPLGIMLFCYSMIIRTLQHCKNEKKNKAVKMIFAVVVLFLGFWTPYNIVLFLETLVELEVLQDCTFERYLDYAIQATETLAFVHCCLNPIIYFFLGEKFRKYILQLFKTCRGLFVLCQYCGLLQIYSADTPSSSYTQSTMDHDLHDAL
It counts as cell membranes, Membrane. Particulars: chem-1.

The target in series [2] is Kappa-type opioid receptor (Homo sapiens, UniProt P41145). Kind of series: DRUGMATRIX: Opiate kappa (OP2, KOP) radioligand binding (ligand: [3H] Diprenorphine). It counts as cell membranes, HEK293, Membrane. The following applies: Not Active = under 50% inhibition at 10 µM.
Chain of Kappa-type opioid receptor (P41145 whole entry): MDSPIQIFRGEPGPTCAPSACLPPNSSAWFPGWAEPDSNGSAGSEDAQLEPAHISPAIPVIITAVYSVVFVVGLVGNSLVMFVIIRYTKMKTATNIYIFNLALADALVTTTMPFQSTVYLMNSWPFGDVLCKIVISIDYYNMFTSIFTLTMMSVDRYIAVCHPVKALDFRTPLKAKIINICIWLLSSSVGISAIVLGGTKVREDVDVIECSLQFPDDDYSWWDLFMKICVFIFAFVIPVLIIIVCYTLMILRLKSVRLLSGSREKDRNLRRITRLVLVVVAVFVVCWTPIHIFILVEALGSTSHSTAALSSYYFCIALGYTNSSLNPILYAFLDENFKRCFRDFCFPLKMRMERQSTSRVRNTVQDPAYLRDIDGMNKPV
Series [3] concerns the target Sigma non-opioid intracellular receptor 1 (Homo sapiens, UniProt Q99720). Kind of series: DRUGMATRIX: Sigma1 radioligand binding (ligand: [3H] Haloperidol). It is filed as cell membranes, Jurkat, Membrane. Particulars: jurkat; Not Active = under 50% inhibition at 10 µM.
Series [4] concerns the target T2, Neuropeptide Y receptor type 1 (Homo sapiens, UniProt P25929). Note: in other assays of this panel Not Active means under 50% inhibition at 10 µM.
T2 sequence (P25929 whole entry): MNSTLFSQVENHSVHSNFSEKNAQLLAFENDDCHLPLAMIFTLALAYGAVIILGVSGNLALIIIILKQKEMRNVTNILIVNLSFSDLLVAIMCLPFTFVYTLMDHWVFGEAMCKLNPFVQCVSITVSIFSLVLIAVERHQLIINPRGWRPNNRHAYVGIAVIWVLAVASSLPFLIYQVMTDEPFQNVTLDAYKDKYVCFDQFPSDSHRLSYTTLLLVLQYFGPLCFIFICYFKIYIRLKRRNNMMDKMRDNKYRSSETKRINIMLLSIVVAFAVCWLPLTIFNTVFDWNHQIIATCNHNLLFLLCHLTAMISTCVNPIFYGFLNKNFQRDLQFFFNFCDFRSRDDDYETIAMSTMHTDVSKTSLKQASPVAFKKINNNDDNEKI
It is filed as cell membranes, Membrane. Particulars: sk-n-mc.

In the next series the target is Estrogen receptor beta (Homo sapiens, UniProt Q92731). The following applies: sf9. Note: in other assays of this panel Not Active means under 50% inhibition at 10 µM.
Chain of Estrogen receptor beta (Q92731 whole entry): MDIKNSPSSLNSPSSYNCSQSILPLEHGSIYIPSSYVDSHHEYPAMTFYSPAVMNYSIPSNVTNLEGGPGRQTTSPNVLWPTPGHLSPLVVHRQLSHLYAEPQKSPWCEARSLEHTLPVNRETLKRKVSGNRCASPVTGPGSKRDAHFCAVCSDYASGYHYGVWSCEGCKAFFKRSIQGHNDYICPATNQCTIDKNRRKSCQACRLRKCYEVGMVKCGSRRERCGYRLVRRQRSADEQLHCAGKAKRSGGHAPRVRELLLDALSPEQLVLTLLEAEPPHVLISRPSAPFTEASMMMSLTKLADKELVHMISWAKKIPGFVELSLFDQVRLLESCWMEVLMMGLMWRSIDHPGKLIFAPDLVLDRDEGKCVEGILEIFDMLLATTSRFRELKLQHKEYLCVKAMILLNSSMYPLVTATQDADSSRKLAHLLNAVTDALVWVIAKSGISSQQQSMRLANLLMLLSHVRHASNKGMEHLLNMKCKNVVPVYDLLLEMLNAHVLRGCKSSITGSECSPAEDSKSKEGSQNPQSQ
The target of series [5] is 5-hydroxytryptamine receptor 2B (Homo sapiens, UniProt P41595). It is filed as cell membranes, CHO-K1, Membrane. Particulars: cho-k1. Note: in other assays of this panel Not Active means under 50% inhibition at 10 µM.
Chain of 5-hydroxytryptamine receptor 2B (P41595 whole entry): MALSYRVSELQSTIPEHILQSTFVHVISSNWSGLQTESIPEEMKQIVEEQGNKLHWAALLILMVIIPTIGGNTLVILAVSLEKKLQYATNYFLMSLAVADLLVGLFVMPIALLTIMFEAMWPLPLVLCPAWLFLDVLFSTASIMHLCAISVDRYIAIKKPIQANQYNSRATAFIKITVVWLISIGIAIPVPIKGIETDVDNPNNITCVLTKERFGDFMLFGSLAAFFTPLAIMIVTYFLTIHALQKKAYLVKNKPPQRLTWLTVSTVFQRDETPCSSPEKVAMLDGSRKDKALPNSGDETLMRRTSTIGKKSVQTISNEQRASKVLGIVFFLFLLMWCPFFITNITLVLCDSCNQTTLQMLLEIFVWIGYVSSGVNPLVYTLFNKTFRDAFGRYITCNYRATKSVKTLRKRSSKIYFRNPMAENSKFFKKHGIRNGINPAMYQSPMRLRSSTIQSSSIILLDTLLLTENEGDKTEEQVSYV
A further series addresses Cytochrome P450 2D6 (Homo sapiens, UniProt P10635). Particulars: bti-tn-5b1-4.

As a reminder, the IC50 is the concentration at which inhibition is half-maximal. A word on the Ki: it is a dissociation constant, usually derived from enzyme kinetics or from competition with a known ligand. A lower Ki goes with higher affinity.

Chain of Cytochrome P450 2D6 (P10635 whole entry): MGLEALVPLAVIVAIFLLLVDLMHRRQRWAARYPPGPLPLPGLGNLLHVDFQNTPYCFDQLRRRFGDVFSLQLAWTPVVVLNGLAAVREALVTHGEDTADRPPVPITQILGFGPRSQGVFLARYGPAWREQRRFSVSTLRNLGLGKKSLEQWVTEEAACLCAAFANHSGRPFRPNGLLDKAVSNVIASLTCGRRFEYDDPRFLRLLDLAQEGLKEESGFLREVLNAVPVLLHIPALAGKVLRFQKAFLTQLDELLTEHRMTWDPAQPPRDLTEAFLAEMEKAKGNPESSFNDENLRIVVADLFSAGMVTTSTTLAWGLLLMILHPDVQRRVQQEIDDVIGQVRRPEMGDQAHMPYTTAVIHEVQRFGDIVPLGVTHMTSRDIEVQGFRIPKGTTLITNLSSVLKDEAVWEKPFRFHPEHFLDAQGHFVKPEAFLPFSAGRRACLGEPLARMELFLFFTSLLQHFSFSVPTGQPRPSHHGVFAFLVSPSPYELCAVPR
Chain of Sigma non-opioid intracellular receptor 1 (Q99720 whole entry): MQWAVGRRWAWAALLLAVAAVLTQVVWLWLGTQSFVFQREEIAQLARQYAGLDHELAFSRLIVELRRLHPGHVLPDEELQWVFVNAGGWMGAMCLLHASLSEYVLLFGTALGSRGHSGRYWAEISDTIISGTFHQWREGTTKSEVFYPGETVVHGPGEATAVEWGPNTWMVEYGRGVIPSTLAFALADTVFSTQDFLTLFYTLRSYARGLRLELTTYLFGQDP

`CCC1(CCC(C)C)C(=O)NC(=O)NC1=O` [AMOBARBITAL]: the IC50 result (in series [1]; in series [2] (hek293); in series [3]; at Estrogen receptor beta; in series [5]; at Cytochrome P450 2D6) was “Not Active” in each case. The Ki entry (in series [4]; on Cytochrome P450 2D6) was “Not Active” throughout.
In the case of `COc1ccc(C2C(=O)c3ccccc3C2=O)cc1` [ANISINDIONE], the IC50 entry (in series [1]; in series [2] (hek293); in series [3]; in series [4]; against Estrogen receptor beta; in series [5]) was “Not Active” in each case. In addition, the IC50 result against Cytochrome P450 2D6 was “Not Active”. For the same compound, at Cytochrome P450 2D6, the Ki result is listed as “Not Active”.
With `O=C1O[C@H]([C@@H](O)CO)C(O)=C1O` [ASCORBIC ACID], the IC50 entry (in series [1]; in series [2] (hek293); in series [3]; in series [4]; against Estrogen receptor beta; in series [5]) was “Not Active” each time. The IC50 result against Cytochrome P450 2D6 is listed as “Not Active”. The Ki entry at Cytochrome P450 2D6 is on record as “Not Active”.
As to `CC(C(=O)O)c1ccc2oc(-c3ccc(Cl)cc3)nc2c1` (stereo not drawn) [BENOXAPROFEN], the IC50 result (in series [1]; in series [2] (hek293); in series [3]; in series [4]; at Estrogen receptor beta; in series [5]) was “Not Active” throughout. Also, the 50% inhibitory concentration (IC50) entry on Cytochrome P450 2D6 is “Not Active”. At Cytochrome P450 2D6, the Ki entry is reported as “Not Active”.
With `CC(=O)Oc1ccc(C(c2ccc(OC(C)=O)cc2)c2ccccn2)cc1` [BISACODYL], the IC50 entry in series [1] was “Not Active”; in series [2] (read-out: IC50), 2440 nM; in series [3] it was “Not Active”; in series [4] it was “Not Active”; on Estrogen receptor beta, “Not Active”; in series [5], “Not Active”. Moreover, on Cytochrome P450 2D6, the half-inhibitory concentration (IC50) result is “Not Active”. The Ki in series [2] was 975 nM; at Cytochrome P450 2D6, “Not Active”.
Take `Brc1c(NC2=NCCN2)ccc2nccnc12` [BRIMONIDINE]: the IC50 entry (in series [1]; in series [2] (hek293); in series [3]; in series [4]; against Estrogen receptor beta; in series [5]) was “Not Active” each time. Moreover, the IC50 result on Cytochrome P450 2D6 was “Not Active”. For the same compound, the Ki entry on Cytochrome P450 2D6 is reported as “Not Active”.
Take `CN(C)[C@@H]1C(O)=C(C(N)=O)C(=O)[C@@]2(O)C(O)=C3C(=O)c4c(O)ccc(Cl)c4[C@@](C)(O)[C@H]3C[C@@H]12` [CHLORTETRACYCLINE]: the IC50 entry (in series [1]; in series [2] (hek293); in series [3]; in series [4]; against Estrogen receptor beta; in series [5]) was “Not Active” each time. On Cytochrome P450 2D6, the IC50 result is given as “Not Active”. For the same compound, the Ki result on Cytochrome P450 2D6 is reported as “Not Active”.
Regarding `CN/C(=N\CCSCc1nc[nH]c1C)NC#N` [CIMETIDINE], the IC50 result (in series [1]; in series [2] (hek293); in series [3]; in series [4]; on Estrogen receptor beta; in series [5]) was “Not Active” throughout. The concentration for half-maximal inhibition (IC50) result on Cytochrome P450 2D6 is listed as “Not Active”. Moreover, the Ki result on Cytochrome P450 2D6 is listed as “Not Active”.
With `CCC(=O)O[C@]1(C(=O)CCl)[C@@H](C)C[C@H]2[C@@H]3CCC4=CC(=O)C=C[C@]4(C)[C@@]3(F)[C@@H](O)C[C@@]21C` [CLOBETASOL PROPIONATE], the IC50 result (in series [1]; in series [2] (hek293); in series [3]; in series [4]; against Estrogen receptor beta; in series [5]) was “Not Active” in each case. Moreover, on Cytochrome P450 2D6, the IC50 entry is on record as “Not Active”. The Ki result on Cytochrome P450 2D6 was “Not Active”.
In the case of `O=C1CN=C(c2ccccc2Cl)c2cc([N+](=O)[O-])ccc2N1` [CLONAZEPAM], the IC50 result (in series [1]; in series [2] (hek293); in series [3]; in series [4]; at Estrogen receptor beta; in series [5]) was “Not Active” each time. In addition, the 50% inhibitory concentration (IC50) result on Cytochrome P450 2D6 was “Not Active”. Besides, the Ki entry at Cytochrome P450 2D6 is listed as “Not Active”.
Take `C[C@@H]1C[C@H]2[C@@H]3CCC4=CC(=O)C=C[C@]4(C)[C@@]3(F)[C@@H](O)C[C@]2(C)[C@H]1C(=O)CO` [DESOXIMETASONE]: the IC50 result (in series [1]; in series [2] (hek293); in series [3]; in series [4]; against Estrogen receptor beta; in series [5]) was “Not Active” each time. The IC50 result against Cytochrome P450 2D6 is “Not Active”. Also, the Ki entry at Cytochrome P450 2D6 is “Not Active”.
As for `C[C@@H]1CC[C@@]2(OC1)O[C@H]1[C@@H](O)[C@H]3[C@@H]4CC[C@H]5C[C@@H](O[C@@H]6O[C@H](CO)[C@H](O[C@@H]7O[C@H](CO)C(O)[C@H](O[C@@H]8OC[C@@H](O)[C@H](O)[C@H]8O)[C@H]7O[C@@H]7O[C@H](CO)[C@H](O)[C@H](O[C@@H]8O[C@H](CO)[C@@H](O)[C@H](O)[C@H]8O)[C@H]7O)[C@H](O)[C@H]6O)[C@H](O)C[C@]5(C)[C@H]4CC[C@]3(C)[C@H]1[C@@H]2C` (stereo partly drawn) [DIGITONIN], the IC50 entry (in series [1]; in series [2] (hek293); in series [3]; in series [4]; on Estrogen receptor beta; in series [5]) was “Not Active” each time. Besides, the IC50 result against Cytochrome P450 2D6 is listed as “Not Active”. In addition, the Ki entry at Cytochrome P450 2D6 is “Not Active”.
Turning to `C[C@H]1O[C@@H](n2cc(F)c(=O)[nH]c2=O)[C@H](O)[C@@H]1O` [DOXIFLURIDINE], the IC50 result (in series [1]; in series [2] (hek293); in series [3]; in series [4]; against Estrogen receptor beta; in series [5]) was “Not Active” each time. Moreover, the IC50 entry against Cytochrome P450 2D6 was “Not Active”. Also, the Ki entry at Cytochrome P450 2D6 is reported as “Not Active”.
`Cn1c(=O)c2c(ncn2CC(O)CO)n(C)c1=O` (stereo not drawn) [DYPHYLLINE]: the IC50 entry (in series [1]; in series [2] (hek293); in series [3]; in series [4]; at Estrogen receptor beta; in series [5]) was “Not Active” throughout. At Cytochrome P450 2D6, the IC50 result is listed as “Not Active”. Moreover, the Ki entry at Cytochrome P450 2D6 is “Not Active”.
As for `COC(=O)CCc1ccc(OCC(O)CNC(C)C)cc1` (stereo not drawn) [ESMOLOL], the IC50 result (in series [1]; in series [2] (hek293); in series [3]; in series [4]; against Estrogen receptor beta; in series [5]) was “Not Active” in each case. Further, the IC50 entry on Cytochrome P450 2D6 was “Not Active”. For the same compound, at Cytochrome P450 2D6, the inhibition constant (Ki) result is recorded as “Not Active”.
Consider `C#C[C@]1(OC(C)=O)CC[C@H]2[C@@H]3CCC4=C[C@@H](OC(C)=O)CC[C@@H]4[C@H]3CC[C@@]21C` [ETHYNODIOL DIACETATE], for which the IC50 entry (in series [1]; in series [2] (hek293); in series [3]; in series [4]; on Estrogen receptor beta; in series [5]) was “Not Active” in each case. Also, the IC50 entry against Cytochrome P450 2D6 was “Not Active”. In addition, on Cytochrome P450 2D6, the Ki result was “Not Active”.
Turning to `CC(C(=O)O)c1cccc(Oc2ccccc2)c1` (stereo not drawn) [FENOPROFEN], the IC50 result (in series [1]; in series [2] (hek293); in series [3]; in series [4]; at Estrogen receptor beta; in series [5]) was “Not Active” throughout. The IC50 entry against Cytochrome P450 2D6 is “Not Active”. Besides, the Ki entry at Cytochrome P450 2D6 is “Not Active”.
Regarding `Nc1ccn([C@@H]2O[C@H](CO)[C@@H](O)C2(F)F)c(=O)n1` [GEMCITABINE], the concentration for half-maximal inhibition (IC50) result (in series [1]; in series [2] (hek293); in series [3]; in series [4]; on Estrogen receptor beta; in series [5]) was “Not Active” each time. The IC50 entry on Cytochrome P450 2D6 is recorded as “Not Active”. Further, the Ki entry on Cytochrome P450 2D6 is recorded as “Not Active”.
With `CC(C)NNC(=O)c1ccncc1` [IPRONIAZID], the IC50 entry (in series [1]; in series [2] (hek293); in series [3]; in series [4]; at Estrogen receptor beta; in series [5]) was “Not Active” in each case. In addition, the half-inhibitory concentration (IC50) result against Cytochrome P450 2D6 is on record as “Not Active”. The Ki entry on Cytochrome P450 2D6 is reported as “Not Active”.
